Data set [1] in a line: Investigation of the hydrolytic stability by 1H-NMR. The following applies: 20% solution in 1:1 water/ethanol; for change in the 1H-NMR spectrum (hydrolytic stability): stored at 37° C., 12-week investigation period, spectrum recorded weekly. The format is physicochemical. The protocol: Monomers 3 and 5 are each dissolved in a 1:1 mixture of water and ethanol and stored as 20% solution at 37° C. The ^1H-NMR spectrum of the solution is recorded weekly.

A short description of data set [2]: Investigation of the solubility in water and organic solvents. The data set is classed as physicochemical. The source says: The solubility of monomers 3 and 5 and of a comparison monomer (comparison monomer 2; X=COO, Z=H) in water, ethanol, acetone, methylene chloride and ethyl acetate was investigated.
Solubility: ++: very good (>20 wt.-%), +: good (10-20 wt.-%), 0: practically insoluble (<1 wt.-%). [drawing 25]

On to `C=C(COCCP(=O)(O)O)C(=O)N(CC)CC` [Monomer 3, 2-[4-(dihydroxyphosphoryl)-2-oxabutyl]-acrylic acid diethylamide], for which, in data set [1], the “change in the 1H-NMR spectrum (hydrolytic stability)” value is listed as “no change in the spectrum”. Further, in data set [2], the Solubility in acetone entry is given as “++ (very good (>20 wt.-%))”, the Solubility in ethanol entry was “++ (very good (>20 wt.-%))”, the “Solubility in ethyl acetate” value is on record as “++ (very good (>20 wt.-%))” and the “Solubility in methylene chloride” value is “++ (very good (>20 wt.-%))”. Also, in data set [2], the Solubility in water result was “++ (very good (>20 wt.-%))”.

With `C=C(COCCP(=O)(O)O)C(=O)O` [Comparison monomer 2, reference compound], in data set [2], the Solubility in acetone is recorded as 0 (practically insoluble (<1 wt.-%)), the Solubility in ethanol is listed as 0 (practically insoluble (<1 wt.-%)), the “Solubility in ethyl acetate” value was 0 (practically insoluble (<1 wt.-%)) and the “Solubility in methylene chloride” value is 0 (practically insoluble (<1 wt.-%)). In data set [2], the Solubility in water result is reported as “++ (very good (>20 wt.-%))”.

Take `C=C(COCCP(=O)(OC)OC)C(=O)OCC` [comparison monomer 1, 2-[4-(dimethoxyphosphoryl)-2-oxa-butyl]-acrylic acid ethyl ester, reference compound]: the “hydrolytic elimination of the ethoxy group” value in data set [1] (37° C., after 3 months, 1H-NMR) worked out at 20%.

Turning to `C=C(C#N)COCCP(=O)(O)O` [Monomer 5, 2-[4-(dihydroxyphosphoryl)-2-oxabutyl]-acrylonitrile], in data set [1], the “change in the 1H-NMR spectrum (hydrolytic stability)” value is “no change in the spectrum”. In data set [2], the Solubility in acetone entry is “++ (very good (>20 wt.-%))”, the Solubility in ethanol result is listed as “++ (very good (>20 wt.-%))”, the “Solubility in ethyl acetate” value is listed as “++ (very good (>20 wt.-%))” and the “Solubility in methylene chloride” value was “++ (very good (>20 wt.-%))”. The Solubility in water entry in data set [2] is on record as “++ (very good (>20 wt.-%))”.

(Values after patent US20020016384A1, “Hydrolysis-stable and polymerizable acrylophosphonic acid” (Ivoclar Vivadent AG., priority 2000, published 2002).)
